Laboratory results from ChEMBL document CHEMBL5214893, “Saponins from Saffron Corms Inhibit the Gene Expression and Secretion of Pro-Inflammatory Cytokines” (J Nat Prod, 2021).
Active and inactive are the calls of the source.

What was measured:
Type in all cases: functional, cell-based
Settings in all cases: time 48.0 hrs
HaCaT [1] = test: […] of TNF-alpha/IFN-gamma induced MCP-1 expression in human HaCaT cells at 20 uM preincubated for 24 hrs followed by stimulation and measured after […] by ELISA analysis
HaCaT [2] = test: Downregulation of TNF-alpha/IFN-gamma induced RANTES expression in human HaCaT cells at 20 uM preincubated for 24 hrs followed by stimulation and measured after […] by ELISA analysis
HaCaT [3] = test: Effect on TNF-alpha/IFN-gamma induced- MCP-1 secretion in human HaCaT cells at 1 uM preincubated for 24 hrs followed by stimulation and measured after […] by ELISA analysis
HaCaT [4] = test: Effect on TNF-alpha/IFN-gamma-induced RANTES secretion in human HaCaT cells at 1 uM preincubated for 24 hrs followed by stimulation and measured after […] by ELISA analysis
HaCaT [5] = test: Effect on TNF-alpha/IFN-gamma-induced RANTES secretion in human HaCaT cells at 20 uM preincubated for 24 hrs followed by stimulation and measured after […] by ELISA analysis

Measured: Activity

C[C@@H]1O[C@@H](OCCCCCCC(=O)CCCCCCC(CC(=O)O[C@@H]2[C@H](O)[C@@H](O[C@@H]3O[C@@H](C)[C@H](O[C@@H]4OC[C@@H](O)[C@H](O)[C@H]4O)[C@@H](O)[C@H]3O[C@@H]3OC[C@H](O)[C@H](O)[C@H]3OC3O[C@H](CO)[C@H](O)[C@H](O)[C@H]3O)[C@H](OC(=O)[C@]34CCC(C)(C)C[C@H]3C3=CC[C@@H]5[C@@]6(C)CC[C@H](O[C@@H]7O[C@H](C(=O)O)[C@@H](O)[C@H](O)[C@H]7O)C(C)(C)[C@@H]6CC[C@@]5(C)[C@]3(C)C[C@H]4O)O[C@@H]2C)O[C@H]2O[C@H](C)[C@@H](O)[C@H](O)[C@@H]2O)[C@H](O)[C@H](O)[C@H]1O (stereo partly specified)
not listed: HaCaT [5]
active: all other assays above

C[C@]12CCC(=O)C=C1CC[C@@H]1[C@@H]2[C@@H](O)C[C@@]2(C)[C@H]1CC[C@]2(O)C(=O)CO
active: HaCaT [1] | HaCaT [2] | HaCaT [5]

C[C@@H]1O[C@@H](OCCCCCCC(=O)CCCCCCC(CC(=O)O[C@@H]2[C@H](O)[C@@H](O[C@@H]3O[C@@H](C)[C@H](O[C@@H]4OC[C@@H](O)[C@H](O)[C@H]4O)[C@@H](O)[C@H]3O[C@@H]3OC[C@H](O)[C@H](O)[C@H]3OC3O[C@H](CO)[C@H](O)[C@H](O)[C@H]3O)[C@H](OC(=O)[C@]34CCC(C)(C)C[C@H]3C3=CC[C@@H]5[C@@]6(C)CC[C@H](O[C@@H]7O[C@H](C(=O)O)[C@H](O)[C@H](O)[C@H]7O)C(C)(C)[C@@H]6CC[C@@]5(C)[C@]3(C)C[C@H]4O)O[C@@H]2C)O[C@H]2O[C@H](C)[C@@H](O)[C@H](O)[C@@H]2O)[C@H](O)[C@H](O)[C@H]1O (stereo partly specified)
not listed: HaCaT [5]
active: all other assays above
